Experimental data: PubChem BioAssay AID1963420 (Molecular Pharmacology Branch, DTP, NCI, 2024)

Test system: 494315-158-R-J1-PDC complex spheroid growth, percent test/control
Assay: Anticancer human tumor 494315-158-R-J1-PDC patient-derived soft tissue sarcoma cell line growth inhibition [Asc]
Conditions: for IC50: curve of first compound; for viability, T/C: stronger effect = lower value
Method: Multicellular complex tumor spheroid response to apoptosis pathway targeting inhibitors Alrizomadlin, Pelcitoclax, and Dasminapant in combination with a variety of drugs and investigational agents in selected tumor cell lines
The MDM2 inhibitor alrizomadlin, the Bcl-2/Bcl-xL inhibitor pelcitoclax, and the IAPs inhibitor dasminapant were evaluated both individually and in combination with standard of care and investigational anticancer small molecules within a complex spheroid model of solid tumors. . Complex spheroids include a stromal component modeled by human endothelial cells (HUVEC) and fibroblasts modeled by human mesenchymal stem cells (MSCs). The concentration ranges selected for each drug and investigational agent were based upon clinically achievable concentrations if the clinical Cmax of the agent was known.
Compounds. The drugs and investigational agents: alrizomadlin (APG-115; NSC831270), pelcitoclax (APG-1252; NSC835773), dasminapant (APG-1387;NSC834197), TAK-243 (NSC785004), copanlisib (NSC809693), olaparib (NSC753686), talazoparib (NSC767125), cobimetinib (NSC 768068), eltanexor (KPT-8602, NSC 794443), abemaciclib (NSC 768073), sotorasib (NSC818433), adagrasib (NSC 831453), MRTX-1133 (NSC 836407), Iadademestat (ORY1001, NSC 806812), and RMC-4630 (NSC839698), were obtained from the NCI Developmental Therapeutics Program Chemical Repository. The FDA-approved anticancer drug set is available from the Developmental Therapeutics Program at https://dtp.cancer.gov/organization/dscb/obtaining/available plates.htm. […] The stock solutions were prepared in dimethyl sulfoxide (DMSO, Sigma-Aldrich, St. Louis, MO, cat. D2650) at 800-fold the tested concentration and stored at -70 degrees C prior to their use. All drugs and investigational agents were tested over a range starting from a high concentration at or near the clinical Cmax and decreasing in half-log increments. If the clinical Cmax for an agent had not been determined, the highest concentration tested was 10 microM.
The patient-derived cancer (PDC) cell lines include five colon adenocarcinomas: 186277-243-T-J2-PDC, 616215-338-R-J1-PDC, 439559-082-T-J2-PDC, 463943-066-T-J2-PDC, and 519858-162-T-J1-PDC; three pancreatic carcinomas: 323965-272-R-J2-PDC, 521955-158-R6-J3-PDC, and 521955-158-R2-J5-PDC; two uterine sarcomas: 327498-152-R-J2-PDC and 993429-296-R-J1-PDC; two rhabdomyosarcomas: 755483-174-R-J1-PDC and 772245-204-R-J1-PDC; two soft tissue sarcomas: 126254-015-R-J1-PDC and 494315-158-R-J1-PDC; two malignant fibrous histiocytomas: 317291-083-R-J1-PDC and 596521-263-R-J1-PDC; two breast carcinomas: 171881-019-R-J1-PDC and 885512-296-R-J2-PDC; and one ovarian carcinoma: 6556581-035-R-J-PDC were obtained from the NCI PDMR, (https://pdmr.cancer.gov). The established cell lines HSSY-2 synovial sarcoma (RRID:CVCL 8719), SYO-1 synovial sarcoma (RRID:CVCL_7146), MPNST malignant peripheral neural sheath tumor were obtained from the Sloan Kettering Institute. The following established cell lines were purchased from the American Type Culture Collection (ATCC, Manassas, VA), Sor the received from the NCI repository:, PANC-1 pancreatic carcinoma (CRL-1469, RRID:CVCL_0480), OVCAR-5 ovarian carcinoma (RRID:CVCL_1628), OVCAR-8 ovarian carcinoma (RRID:CVCL_1629), , MCF-7 breast carcinoma (CRL-12584, RRID:CVCL_0031), MDA-MB-231 breast carcinoma (CRL-12532, RRID:CVCL_0062), NCI-H1876 small cell lung carcinoma (CRL-5902, RRID:CVCL_1503), NCI-H510A small cell lung carcinoma (HTB-184, RRID:CVCL_1565), NCI-H1417 (CRL-5869, RRID:CVCL_1469), and NCI-H196 small cell lung carcinoma (CRL-5823, RRID:CVCL_1509). Dr. Peter Houghton (Greehey Children's Cancer Research Institute, University of Texas Health Science Center, San Antonio, TX) provided Rh-18 rhabdomyosarcoma (RRID:CVCL_1659). Pooled donor human umbilical vein endothelial cells (HUVEC, Lonza, cat. CC-2519) and human mesenchymal stem cells (hMSC, Lonza, cat. PT-2501) were purchased from Lonza (Walkersville, MD).
Cell Culture. […]

[1] = second compound 0.1 µM, first compound 0.00316 µM
[2] = second compound 0.1 µM, first compound 0.01 µM
[3] = second compound 0.1 µM, first compound 0.0316 µM
[4] = second compound 0.1 µM, first compound 0.1 µM
[5] = second compound 0.316 µM, first compound 0.00316 µM
[6] = second compound 0.316 µM, first compound 0.01 µM
[7] = second compound 0.316 µM, first compound 0.0316 µM
[8] = second compound 0.316 µM, first compound 0.1 µM
[9] = second compound 1 µM, first compound 0.00316 µM
[10] = second compound 1 µM, first compound 0.01 µM
[11] = second compound 1 µM, first compound 0.0316 µM
[12] = second compound 1 µM, first compound 0.1 µM
[13] = second compound 3.16 µM, first compound 0.00316 µM
[14] = second compound 3.16 µM, first compound 0.01 µM
[15] = second compound 3.16 µM, first compound 0.0316 µM
[16] = second compound 3.16 µM, first compound 0.1 µM
[17] = second compound 10 µM, first compound 0.00316 µM
[18] = second compound 10 µM, first compound 0.01 µM
[19] = second compound 10 µM, first compound 0.0316 µM
[20] = second compound 10 µM, first compound 0.1 µM
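Note: compound exposure lasted seven days after spheroids formed for three days.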

| IC50 (second compound 0.1 µM) [µM] | IC50 (second compound 0.316 µM) [µM] | IC50 (second compound 1 µM) [µM] | IC50 (second compound 3.16 µM) [µM] | IC50 (second compound 10 µM) [µM] | Structure (SMILES) | viability, T/C [1] [%] | viability, T/C [2] [%] | viability, T/C [3] [%] | viability, T/C [4] [%] | viability, T/C [5] [%] | viability, T/C [6] [%] | viability, T/C [7] [%] | viability, T/C [8] [%] | viability, T/C [9] [%] | viability, T/C [10] [%] | viability, T/C [11] [%] | viability, T/C [12] [%] | viability, T/C [13] [%] | viability, T/C [14] [%] | viability, T/C [15] [%] | also measured |
| --- | --- | --- | --- | --- | --- | --- | --- | --- | --- | --- | --- | --- | --- | --- | --- | --- | --- | --- | --- | --- | --- |
| > 0.1 | > 0.1 | 0.00933 | 0.000337 | > 0.1 | NC1CCC(NC2CC2c2ccccc2)CC1 (stereo not given) + Cc1c(S(C)(=O)=O)c(-c2cc(F)cc(N3CCN(c4ccc(NS(=O)(=O)c5ccc(NC(CCN6CCC(C(=O)OCCCP(=O)(O)O)CC6)CSc6ccccc6)c(S(=O)(=O)C(F)(F)F)c5)cc4)CC3)c2)c(-c2ccc(Cl)cc2)n1C(C)C | 78.8 | 68.5 | 74.6 | 72.9 | 61 | 57.6 | 64.5 | 61.8 | 61.7 | 47.9 | 44.4 | 55.6 | 43.6 | 43 | 39.8 | viability, T/C (second compound 0.1 µM, first compound 0.000316 µM): 72.5%; viability, T/C (second compound 0.1 µM, first compound 0.001 µM): 71.3%; viability, T/C (second compound 0.316 µM, first compound 0.000316 µM): 56.4%; viability, T/C (second compound 0.316 µM, first compound 0.001 µM): 61.5%; viability, T/C (second compound 1 µM, first compound 0.000316 µM): 53.3%; viability, T/C (second compound 1 µM, first compound 0.001 µM): 67.5%; viability, T/C (second compound 3.16 µM, first compound 0.000316 µM): 49.9%; viability, T/C (second compound 3.16 µM, first compound 0.001 µM): 47.4%; viability, T/C [16]: 47.5%; viability, T/C (second compound 10 µM, first compound 0.000316 µM): 58%; viability, T/C (second compound 10 µM, first compound 0.001 µM): 58.6%; viability, T/C [17]: 57.9%; viability, T/C [18]: 57.6%; viability, T/C [19]: 57.1%; viability, T/C [20]: 56% |
| 0.0378 | 0.0147 | 0.0165 | 0.00318 | 0.00927 | COc1c(OCCCN2CCOCC2)ccc2c3n(c(=NC(=O)c4cnc(N)nc4)nc12)CCN3 + Cc1c(S(C)(=O)=O)c(-c2cc(F)cc(N3CCN(c4ccc(NS(=O)(=O)c5ccc(NC(CCN6CCC(C(=O)OCCCP(=O)(O)O)CC6)CSc6ccccc6)c(S(=O)(=O)C(F)(F)F)c5)cc4)CC3)c2)c(-c2ccc(Cl)cc2)n1C(C)C | 69.7 | 60.7 | 55.6 | 29.8 | 67.6 | 56.1 | 37.6 | 32.1 | 68.3 | 58 | 39.5 | 26.6 | 49.7 | 45 | 32.7 | viability, T/C (second compound 0.1 µM, first compound 0.316 µM): 18%; viability, T/C (second compound 0.1 µM, first compound 1 µM): 12.9%; viability, T/C (second compound 0.316 µM, first compound 0.316 µM): 15.8%; viability, T/C (second compound 0.316 µM, first compound 1 µM): 11.1%; viability, T/C (second compound 1 µM, first compound 0.316 µM): 14%; viability, T/C (second compound 1 µM, first compound 1 µM): 10.7%; viability, T/C [16]: 21.4%; viability, T/C (second compound 3.16 µM, first compound 0.316 µM): 12.5%; viability, T/C (second compound 3.16 µM, first compound 1 µM): 8.31%; viability, T/C [17]: 69.3%; viability, T/C [18]: 49%; viability, T/C [19]: 31.2%; viability, T/C [20]: 21.1%; viability, T/C (second compound 10 µM, first compound 0.316 µM): 12.8%; viability, T/C (second compound 10 µM, first compound 1 µM): 9.05% |
